In the NIST ThermoML archive (doi:10.1021/je7005133):

c1cc2c3c(cccc3c1)CC2 [acenaphthene]
Crystal
Settings | vapor or sublimation pressure [kPa]
297.6 K | 0.00029
299.7 K | 0.000362
300.5 K | 0.000413
301.6 K | 0.00044
302.8 K | 0.000508
306.1 K | 0.000693
310.7 K | 0.00112
315.6 K | 0.0018

c1ccc2cc3ccccc3cc2c1 [anthracene]
Crystal
Settings | vapor or sublimation pressure [kPa]
322.2 K | 1.6e-05
327 K | 2.6e-05
329.1 K | 3.33e-05
333.4 K | 4.91e-05
336.3 K | 7.2e-05
338.7 K | 9.43e-05
340.4 K | 0.00011
341.2 K | 0.000119
342.3 K | 0.000131
343.6 K | 0.000141
344.2 K | 0.000164
346.4 K | 0.000192
348.2 K | 0.00026

c1ccc2c(c1)cc1ccc3cccc4ccc2c1c34 [benzo[a]pyrene]
Crystal
Settings | vapor or sublimation pressure [kPa]
392.3 K | 7.31e-05
393.5 K | 7.96e-05
397.8 K | 0.000129
400.8 K | 0.000167
402.3 K | 0.00018
405.2 K | 0.000217
406.6 K | 0.000273
411.5 K | 0.000394
411.8 K | 0.000418
415.1 K | 0.000494
415.5 K | 0.000537
419 K | 0.000697
419.7 K | 0.000733
421.2 K | 0.000785
423.8 K | 0.00098
423.9 K | 0.00102

c1ccc2c(c1)ccc1c3ccccc3ccc21 [chrysene]
Crystal 2
Settings | vapor or sublimation pressure [kPa]
372.4 K | 1.74e-05
380.7 K | 3.72e-05
385.2 K | 5.37e-05
389.2 K | 7.61e-05
389.4 K | 7.5e-05
393.6 K | 0.000103
394.2 K | 0.000136
396.1 K | 0.000148
398.1 K | 0.000168
398.2 K | 0.000158
400 K | 0.000202
400.4 K | 0.000212
402.8 K | 0.000263
403 K | 0.000254
404.8 K | 0.000277
404.9 K | 0.000292
405.1 K | 0.000306
406.8 K | 0.000336
408.6 K | 0.000379

c1cc2cccc3c4cccc5cccc(c(c1)c23)c54 [perylene]
Crystal
Settings | vapor or sublimation pressure [kPa]
390 K | 1.37e-05
390.5 K | 1.47e-05
391.2 K | 1.49e-05
393.7 K | 2.15e-05
397.7 K | 3.15e-05
398.3 K | 3.03e-05
402.2 K | 4.58e-05
402.8 K | 4.76e-05
403.7 K | 5.19e-05
405.7 K | 6.67e-05
406.6 K | 7.2e-05
406.8 K | 7.03e-05
410.5 K | 0.0001
411.3 K | 0.000102
412.7 K | 0.000132
413.4 K | 0.000142
414.4 K | 0.000148
418.4 K | 0.000196
428.6 K | 0.000443
432.4 K | 0.000606

c1cc2ccc3cccc4ccc(c1)c2c34 [pyrene]
Crystal
Settings | vapor or sublimation pressure [kPa]
322 K | 8.95e-06
337.1 K | 5.31e-05
342.1 K | 9.43e-05
347.1 K | 0.000147
352.3 K | 0.000227
356.8 K | 0.000339
362.1 K | 0.000599
372 K | 0.0013
381.4 K | 0.00281

C1=Cc2cccc3cccc1c23 [acenaphthylene]
Crystal
Settings | vapor or sublimation pressure [kPa]
297.4 K | 0.000488
297.6 K | 0.000531
304.6 K | 0.00105
304.7 K | 0.00108
306.7 K | 0.00114
311.9 K | 0.00182
314.8 K | 0.00345
318.5 K | 0.00345
318.6 K | 0.00347
319.7 K | 0.00414

c1ccc2c(c1)-c1cccc3cccc-2c13 [fluoranthene]
Crystal
Settings | vapor or sublimation pressure [kPa]
326.8 K | 3.96e-05
326.9 K | 4.11e-05
331 K | 6.16e-05
331.8 K | 6.32e-05
336.7 K | 0.000117
338.7 K | 0.000129
338.8 K | 0.000131
338.9 K | 0.000144
340.2 K | 0.000154
342.5 K | 0.000206
343.9 K | 0.000248
345.3 K | 0.000258
348 K | 0.00033
348.5 K | 0.000341
350.9 K | 0.000463
354.1 K | 0.00058
359.2 K | 0.00105

c1ccc2c(c1)c1ccccc1c1ccccc21 [triphenylene]
Crystal
Settings | vapor or sublimation pressure [kPa]
368.4 K | 1.7e-05
377.4 K | 4.48e-05
377.7 K | 4.51e-05
378 K | 4.64e-05
386.7 K | 0.000116
390.7 K | 0.000178
394.9 K | 0.000264
395 K | 0.000258
399.1 K | 0.000375

c1ccc2c(c1)Cc1ccccc1-2 [fluorene]
Crystal
Settings | vapor or sublimation pressure [kPa]
298 K | 6.61e-05
298.1 K | 6.52e-05
299.8 K | 8.4e-05
301.4 K | 9.88e-05
304.3 K | 0.000141
306.6 K | 0.000178
306.9 K | 0.000195
308.1 K | 0.000218
309.8 K | 0.000261
311.2 K | 0.000301
314.3 K | 0.000414
316 K | 0.00046
316.5 K | 0.000531
317.3 K | 0.000581
317.6 K | 0.000613
320.3 K | 0.00076
324.4 K | 0.00127
